What was measured:
+SA mammary tumor cells = assay: HGF-dependent +SA mammary tumor cell growth, viable cell number by MTT colorimetric assay; type: cell-based, mice; conditions: for HGF-dependent +SA cell growth: vs vehicle-treated control; for +SA tumor cell growth: summary statement, HGF-dependent, in a dose-responsive manner
Method: +SA mammary tumor cells were used for the examples presented herein. […] In addition, +SA cells can form adenocarcinomas that metastasize to the lungs when injected into the mammary gland fat pad of syngeneic female mice. +SA cells were maintained in serum-free defined media containing 10 ng/mL Hepatocyte growth factor (HGF) as the mitogen, Dulbecco's Modified Eagle's Medium (DMEM)/F12 supplemented with 5 mg/mL bovine serum albumin (BSA), 10 μg/mL transferrin, 100 U/mL soybean trypsin inhibitor, 100 U/mL penicillin, 0.1 mg/mL streptomycin and 10 μg/mL insulin at 37° C. in an environment of 95% air and 5% CO2 in humidified incubator. For subculturing, cells were rinsed with sterile Ca^2+ and Mg^2+-free phosphate buffered saline (PBS) and incubated with 0.05% trypsin containing 0.025% EDTA in PBS for 5 min at 37° C. The released cells were centrifuged, resuspended in serum-free media and counted using hemocytometer.
γ-tocotrienol was prepared for the tests of this example by suspending it in a solution of sterile 10% BSA. An appropriate amount of γ-tocotrienol was dissolved in 100 μL of absolute ethyl alcohol and then added to a small volume of sterile 10% BSA in water and incubated overnight at 37° C. This stock solution was used to prepare various concentrations of the treatment media. Ethanol was added to all treatment groups in a given experiment such that the final concentration of ethanol never exceeded 0.1%. Stock solution of the Met inhibitor, SU11274 was prepared in DMSO and DMSO was added to all treatment media such that the final concentration was same in all treatment groups and never exceeded a concentration of 0.1%.
+SA cells were initially seeded at a density of 5×10^4 cells/well (6 replicates/group) in 24-well plates in serum-free defined media containing 10 ng/mL HGF as mitogen and allowed to attach overnight. For growth studies, +SA cells were maintained in serum-free defined media containing various doses of HGF over a 3-day culture period. In the antiproliferative experiments, cells were exposed to respective experimental treatments containing various concentrations of SU11274 or γ-tocotrienol alone or in combination for three days. On the fourth day, cells were divided into different treatment groups and treated with various concentrations of SU11274 or γ-tocotrienol alone or in combination for 24 hours. At the end of the treatment exposure period, the viable +SA cell number was determined by 3-(4,5-dimethylthiazol-2yl)-2,5-diphenyl tetrazolium bromide (MTT) colorimetric assay. Control and treatment media in various treatment groups in 24-well plates were replaced with fresh media containing 0.41 mg/ml MTT. After 4-h incubation period, the media was removed and MTT crystals were dissolved in isopropanol (1 ml/well), and the optical density of each sample was measured at 570 nm on a microplate reader (SpectraCount, Packard BioScience Company). The number of cells/well was calculated against a standard curve prepared by plating various concentrations of cells, as determined by hemocytometer, at the beginning of each experiment.
Vertical bars indicate mean viable cell number±SEM for six replicates in each treatment group. Differences among various treatment groups in +SA cell growth studies were determined by the analysis of variance (ANOVA) followed by Dunnett's t test. A difference of P<0.05 was considered statistically significant as compared to the vehicle-treated control.
Effects of various doses of SU11274, a specific Met Receptor Tyrosine Kinase inhibitor, or γ-tocotrienol on HGF-dependent +SA mammary tumor cell growth after a 3-day culture period are shown in FIG. 2. […] In the present example, +SA cells were initially plated at a density of 5×10^4 cells/well (6 replicates/group) in 24-well plates and exposed to various doses of SU11274 or γ-tocotrienol in the presence of 10 ng/mL HGF throughout a 3-day culture period. Viable cell number was determined using the MTT colorimetric assay. […]

Met = target: T1, Met (Mus musculus, UniProt P16056); assay: Western blot analysis of total and phosphorylated (active) Met levels in HGF-stimulated +SA cells; type: cell-based, mice; conditions: for HGF-dependent Met tyrosine phosphorylation: summary statement, in a dose-responsive manner
T1 construct: whole cell lysates were prepared and then subjected to polyacrylamide gel electrophoresis and Western blot analysis for total and phosphorylated Met levels; endogenous in cells; host or cells: +SA mammary tumor cells
T1 sequence (P16056 25-1379): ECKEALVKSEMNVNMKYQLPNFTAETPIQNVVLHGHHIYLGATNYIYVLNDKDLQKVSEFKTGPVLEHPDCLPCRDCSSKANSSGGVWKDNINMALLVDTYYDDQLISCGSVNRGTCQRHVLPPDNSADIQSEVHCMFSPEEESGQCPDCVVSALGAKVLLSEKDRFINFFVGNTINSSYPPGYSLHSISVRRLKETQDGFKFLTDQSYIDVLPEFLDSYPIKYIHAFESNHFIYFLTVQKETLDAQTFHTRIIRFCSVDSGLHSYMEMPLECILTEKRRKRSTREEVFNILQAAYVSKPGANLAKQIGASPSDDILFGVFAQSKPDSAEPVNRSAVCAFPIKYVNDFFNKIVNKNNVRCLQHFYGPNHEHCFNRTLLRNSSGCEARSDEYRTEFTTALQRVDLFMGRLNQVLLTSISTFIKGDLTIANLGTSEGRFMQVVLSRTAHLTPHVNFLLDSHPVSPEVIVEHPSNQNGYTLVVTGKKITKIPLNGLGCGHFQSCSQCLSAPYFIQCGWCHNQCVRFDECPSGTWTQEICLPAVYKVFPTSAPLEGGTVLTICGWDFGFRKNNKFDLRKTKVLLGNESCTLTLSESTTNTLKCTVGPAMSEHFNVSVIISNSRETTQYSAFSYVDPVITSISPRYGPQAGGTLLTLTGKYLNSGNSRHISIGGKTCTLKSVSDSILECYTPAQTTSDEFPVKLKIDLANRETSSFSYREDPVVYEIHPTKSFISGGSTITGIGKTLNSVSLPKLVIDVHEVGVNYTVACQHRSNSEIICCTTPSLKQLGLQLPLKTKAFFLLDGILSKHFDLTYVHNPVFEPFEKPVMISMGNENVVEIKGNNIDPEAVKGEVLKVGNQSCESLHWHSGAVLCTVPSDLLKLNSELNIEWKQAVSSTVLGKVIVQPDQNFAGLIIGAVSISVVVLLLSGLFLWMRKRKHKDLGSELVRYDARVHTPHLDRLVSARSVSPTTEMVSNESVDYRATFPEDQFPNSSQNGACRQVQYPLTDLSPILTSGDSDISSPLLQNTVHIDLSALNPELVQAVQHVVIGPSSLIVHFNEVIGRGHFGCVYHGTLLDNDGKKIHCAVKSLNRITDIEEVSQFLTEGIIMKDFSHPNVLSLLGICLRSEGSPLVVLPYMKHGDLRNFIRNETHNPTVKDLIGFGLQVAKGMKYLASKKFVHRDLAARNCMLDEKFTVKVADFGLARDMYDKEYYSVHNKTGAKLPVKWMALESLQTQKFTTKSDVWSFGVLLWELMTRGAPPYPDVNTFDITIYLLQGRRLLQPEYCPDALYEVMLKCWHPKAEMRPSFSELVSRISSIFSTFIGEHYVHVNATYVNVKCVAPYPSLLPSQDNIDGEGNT
Method: For Western blot analysis, +SA cells were initially plated at a density of 1×10^6 cells/100-mm culture dish, allowed to attach overnight and then incubated in the respective control or treatment media. At the end of treatment period, cells were isolated with trypsin, washed with PBS, and then whole cell lysates were prepared in a Laemmle buffer. Protein concentration in each sample was determined using a protein assay kit (Bio-Rad protein assay kit, Bio Rad, Hercules, Calif., USA). Equal amount of protein (30-50 μg/lane) of each sample was subjected to electrophoresis through 7.5%-15% SDS-polyacrylamide minigels. Minigels within a given treatment were run simultaneously using AccuPower model 500 power supply unit (VWR, Suwanee, Ga., USA). Each gel was then equilibrated in transfer buffer and transblotted at 30 V for 12-16 hours at 4° C. onto a polyvinylidene fluoride (PVDF) membrane (PerkinElmer Lifesciences, Wellesley, Mass., USA) in a Trans-Blot Cell (Bio-Rad Laboratories, Hercules, Calif.) according to the method of Towbin. These PVDF membranes were then blocked with 2% BSA in 10 mM Tris-HCl containing 50 mM NaCl and 0.1% Tween 20, pH 7.4 (TBST) and then, incubated with specific primary antibodies against Met, phospho-Met, cleaved caspase-3, cleaved PARP, and α-tubulin diluted 1:1000 to 1:5000 in 2% BSA in TBST for 2 hours at room temperature or overnight at 4° C. Membranes were then washed 5 times with TBST and incubated with respective horseradish […]-conjugated secondary antibody diluted 1:3000 to 1:5000 in 2% BSA in TBST for 1 hour at room temperature followed by rinsing with TBST for 5 times. Blots were then visualized by chemiluminescence. (Pierce, Rockford, Ill., USA). Images of protein bands from all treatment groups within a given experiment were acquired using Kodak Gel Logic 1500 Imaging System (Carestream Health Inc, New Haven, Conn., USA). The visualization of α-tubulin was used to ensure equal sample loading in each lane.
+SA cells were plated at a density of 1×10^6 cells/100 mm culture dish. Cells were then incubated with serum-free media containing vehicle (control), 5.5 μM SU11274 or 4 μM γ-tocotrienol and 10 ng/mL HGF as the mitogen for a 3-day culture period. Following treatment exposure, cells were incubated in mitogen-free media overnight. Afterwards, cells were stimulated with 100 ng/mL HGF for 30 min Cells incubated in mitogen-free media were used as untreated controls. Following mitogen exposure, whole cell lysates were prepared and then subjected to polyacrylamide gel electrophoresis and Western blot analysis for total and phosphorylated Met levels. α-Tubulin was visualized to ensure equal sample loading in each lane. Each Western blot is a representative image of the data obtained for experiments that were repeated at least three times.
The +SA cells were plated at a density of 1×10^6 cells/100 mm culture dish. Cells were then incubated with serum-free media containing vehicle (control) or 4 μM γ-tocotrienol, and 10 ng/mL HGF as a mitogen. Cells were collected at various times during the next 72-h period. Following treatment exposure at each time point, cells were incubated in mitogen-free media overnight. Afterwards, cells were stimulated with 100 ng/mL HGF for 30 min Cells incubated with mitogen-free media were used as untreated controls. Following mitogen exposure, whole cell lysates were prepared and then subjected to polyacrylamide gel electrophoresis and Western blot analysis for total and phosphorylated (active) Met receptor levels. α-Tubulin was visualized to ensure equal sample loading in each lane. Western blots presented in FIG. 4 are representative of the data obtained for experiments that were repeated at least three times.
Cells were then incubated with serum-free media containing vehicle (control), 3 μM SU11274, 2 μM γ-tocotrienol or the combination of 3 μM SU11274 and 2 μM γ-tocotrienol, and 10 ng/mL HGF as a mitogen for a 3-day culture period. […]

[1] = 5.5 μM SU11274, 3-day culture, then 100 ng/mL HGF for 30 min, vs vehicle-treated control
[2] = 4 μM γ-tocotrienol, 10 ng/mL HGF, time course over 72 h, vs vehicle-treated control

Compound | HGF-dependent +SA cell growth (+SA mammary tumor cells; 4.5-5.5 μM SU11274, 10 ng/mL HGF, 3-day culture, P<0.05) | HGF-dependent +SA cell growth (+SA mammary tumor cells; subeffective dose 3 μM SU11274 alone, 10 ng/mL HGF, 3-day culture) | +SA tumor cell growth (+SA mammary tumor cells) | HGF-dependent Met tyrosine phosphorylation (activation) (Met; [1]) | total intracellular levels of Met receptors (Met; [1]) | HGF-dependent Met tyrosine phosphorylation (Met) | HGF-dependent +SA cell growth (+SA mammary tumor cells; 4 μM γ-tocotrienol, 10 ng/mL HGF, 3-day culture, P<0.05) | HGF-dependent +SA cell growth (+SA mammary tumor cells; subeffective dose 2 μM γ-tocotrienol alone, 10 ng/mL HGF, 3-day culture) | culture exposure time at which reduction in total levels of Met protein was maximal (Met; [2]) | treatment exposure time at which reduction in total levels of Met protein started (Met; [2]) | level of total Met protein (Met; 4 μM γ-tocotrienol, 3-day culture, then 100 ng/mL HGF for 30 min) | HGF-induced Met phosphorylation (Met; 4 μM γ-tocotrienol, 3-day culture, then 100 ng/mL HGF for 30 min, mirrors loss of Met expression) | growth of neoplastic +SA mammary epithelial cells (viable cell number) (+SA mammary tumor cells; stimulation with 1-10 ng/mL HGF, 3-day culture, dose-responsive, vs mitogen-free control media, P<0.05)
Cc1[nH]c(/C=C2\C(=O)Nc3ccc(S(=O)(=O)N(C)c4cccc(Cl)c4)cc32)c(C)c1C(=O)N1CCN(C)CC1 [SU11274, reference compound] | significantly inhibited | no effect | inhibited | large relative reduction | no effect | inhibited | – | – | – | – | – | – | –
CC(C)=CCC/C(C)=C/CC/C(C)=C/CC[C@]1(C)CCc2cc(O)c(C)c(C)c2O1 [γ-tocotrienol] | – | – | inhibited | – | – | inhibited | significantly inhibited | no effect | 3 days | 24 h | significant reduction | loss | –
HGF: Hepatocyte growth factor (HGF), the mitogen, purchased from PeproTech Inc. | – | – | – | – | – | – | – | – | – | – | – | – | significantly increased

Reference: patent US20130143866A1, “ANTICANCER COMBINATION TREATMENTS” (priority 2011, published 2013)
